From patent US7244583B2, “Device for detecting bacterial contamination and method of use” (priority 2000, dated 2007)
*: point of attachment. DABSYL = CN(C)c1ccc(/N=N/c2ccc(S(=O)(=O)*)cc2)cc1; EDANS = O=S(=O)(O)c1cccc2c(NCCN*)cccc12

Legend:
mpl = test: FRET analysis of mpl activity with DABCYL/EDANS-labeled peptide substrates (Listeria); format: biochemical, Listeria monocytogenes; details: FRET peptide probe
From the text: The presence of L. monocytogenes contamination is detected by measuring the metalloprotease (mpl), which is found only in the pathogenic species of L. monocytogenes (Domann et al., infection and Immunity. 1991. January; 59(1):65-72; Mengaud et al., 1991). A series of peptides, M1 (lot 038-13/15) and P1 (lot 038-10/12), for use as synthetic substrates for mpl (Table 1) was designed and the sequences manufactured by New England Peptide (195 Kimball St., Fitchburg, Mass.). The peptides were synthesized with fluorescent groups (DABCYL and EDANS) in such a way that the active sites were not blocked. The M1 peptide is specific for L. monocytogenes at pH 5.5.
Fluorescence resonance energy transfer (FRET) is the process of a distance dependent excited state interaction in which the emission of one fluorescent molecule is coupled to the excitation of another. […] The cleavage reaction can be followed by observing either a decrease in DABCYL fluorescence or an increase in EDANS fluorescence (loss of quenching).
Determine the peptide sequence for the active site of the protease using fluorescence resonance energy transfer (FRET). Fluorescence resonance energy transfer (FRET) is the process of a distance dependent excited state interaction in which the emission of one fluorescent molecule is coupled to the excitation of another. […]

E. coli = test: FRET peptide substrate cleavage/detection with E. coli; format: biochemical; details: FRET peptide probe

Substance | Description: specificity of peptide substrate for Listeria (L. monocytogenes) (mpl; pH 5.5) | detection of the presence of E. coli by the peptide (E. coli; pH 5.5) | Description: cleavage by Listeria (mpl) | Description: cleavage by E. coli (E. coli)
DABSYL-NML, SEVERE-EDANS ({DABSYL}-NMLSEVERE-{EDANS}; SMILES CSCC[C@H](NC(=O)[C@H](CC(N)=O)NS(=O)(=O)c1ccc(/N=N/c2ccc(N(C)C)cc2)cc1)C(=O)N[C@@H](CC(C)C)C(=O)N[C@@H](CO)C(=O)N[C@@H](CCC(=O)O)C(=O)N[C@H](C(=O)N[C@@H](CCC(=O)O)C(=O)N[C@@H](CCCNC(=N)N)C(=O)N[C@@H](CCC(=O)O)C(=O)NCCNc1cccc2c(S(=O)(=O)O)cccc12)C(C)C) [Peptide M1, FRET-labeled synthetic peptide substrate for mpl of L. monocytogenes (lot 038-13/15)] | Specific to | does not significantly detect | – | –
DABSYL-ADTVEPTGAKE-EDANS ({DABSYL}-ADTVEPTGAKE-{EDANS}; SMILES CC(C)[C@H](NC(=O)[C@@H](NC(=O)[C@H](CC(=O)O)NC(=O)[C@H](C)NS(=O)(=O)c1ccc(/N=N/c2ccc(N(C)C)cc2)cc1)[C@@H](C)O)C(=O)N[C@@H](CCC(=O)O)C(=O)N1CCC[C@H]1C(=O)N[C@H](C(=O)NCC(=O)N[C@@H](C)C(=O)N[C@@H](CCCCN)C(=O)N[C@@H](CCC(=O)O)C(=O)NCCNc1cccc2c(S(=O)(=O)O)cccc12)[C@@H](C)O) [Peptide P2, FRET-labeled synthetic peptide probe] | – | – | Not cleaved | Not cleaved
